Laboratory results: US20140200215A1, “LYSOPHOSPHATIDIC ACID RECEPTOR ANTAGONISTS” (INTERMUNE, INC., priority 2013, published 2014)
pEC50, pIC50: −log10 of the molar value.

Columns and labels:
Type in all cases: cell-based
Human LPA1 [1] = biological target: T1, Human LPA1 (Homo sapiens, UniProt Q92633); assay: Beta-Arrestin based assay for human LPA1R antagonists (PathHunter); details: CHO cells expressing ProLink tagged human LPA1R; antagonist mode, 0.5 micromolar LPA
Description: Beta-Arrestin Based Assays for Human LPA1R Antagonists and Agonists
A CHO cell line stably expressing the ProLink™ tagged human LPA1R was obtained from DiscoverX Inc, Fremont, Calif. In this system, β-Arrestin was fused to an N-terminal deletion mutant of β-galactosidase (termed the enzyme acceptor or EA), the human LPA1R was fused to a smaller (42 amino acids) weakly complementing fragment termed ProLink™. […] Cell handling and assays were performed according to protocols specified in the PathHunter® assays kits (DiscoverX, Fremont, Calif.). Assays were performed in quadruplicate in white 384 well plates. End point luminescence data were plotted and fit to a 4 parameter logistic function to obtain IC50 values. For antagonist assays, an […] concentration of agonist (LPA) equal to 0.5 micromolar was used.

[2] = tested on: primary fibroblasts (including lung, dermal), HFL-1, 3T3 and CHO cells expressing LPA1R; assay: LPA1 migration assay (Oris cell migration); details: inhibition of cell migration in response to chemoattractant (LPA, serum)
Source text: Migration of primary fibroblasts (including lung, dermal), HFL-1, 3T3 and CHO cells expressing LPA1R were monitored using the Oris™ assay (Platypus Technologies, Madison, Wis.). These cells were dye (Cell Tracker Green™) loaded and serum starved for 12-24 hrs. In response to chemoattractants such as LPA and serum, the cells migrated inward in to the exclusion (detection) zone. After fixing, fluorescent cells in the detection zone were counted using a high content reader. The ability of LPA1 antagonists to inhibit cell migration is quantified by plotting cell number vs. compound concentration and curve fitting the resulting dose-response curve to a 4 parameter logistic function.

Human LPA1 [3] = biological target: T1, Human LPA1; assay: LPA1 calcium flux assay; set-up: the full-length cDNA for human LPA1 is obtained by PCR of the reverse transcription reaction; expressed in transfected cells; details: human LPA1 expressing CHO cells, stimulated with 10 nM LPA; read-out: Ca Flux LPA1 IC50
Description: Establishment of a CHO Cell Line Stably Expressing Human LPA1
A 1.1 kb cDNA encoding the human LPA1 receptor is cloned from human lung. Human lung RNA (Clontech Laboratories, Inc. USA) is reverse transcribed using the RETROscript kit (Ambion, Inc.) and the full-length cDNA for human LPA1 is obtained by PCR of the reverse transcription reaction. The nucleotide sequence of the cloned human LPA1 is determined by sequencing and is confirmed to be identical to the published human LPA1 sequence (An et al. Biochem. Biophys. Res. Commun. 231:619 (1997). The cDNA is cloned into the pCDNA5 pcDNA5/FRT expression plasmid and is transfected in CHO cells using lipofectamine 2000 (Invitrogen Corp., USA). Clones stably expressing human LPA1 are selected using hygromycin and identified as cells that show Ca-influx in response to LPA.
LPA1 and LPA3 Calcium Flux Assays
Human LPA1 or LPA3 expressing CHO cells were seeded at 20,000-45,000 cells per well in a 96-well poly-D-lysine coated plate one or two days before the assay. Prior to the assay, the cells were washed once with PBS and then cultured in serum-free media overnight. On the day of the assay, a calcium indicator dye (Calcium 4, Molecular Devices) in assay buffer (HBSS with Ca^2+ and Mg^2+ and containing 20 mM Hepes and 0.3% fatty-acid free human serum albumin) was added to each well and incubation continued for 1 hour at 37° C. 10 μl of test compounds in 2.5% DMSO were added to the cells and incubation continued at room temperature for 30 minutes. Cells were then stimulated by the addition of 10 nM LPA and intracellular Ca^2+ measured using the Flexstation 3 (Molecular Devices). IC50, were determined using Graphpad prism analysis of drug titration curves.

T1 sequence (Q92633 whole entry): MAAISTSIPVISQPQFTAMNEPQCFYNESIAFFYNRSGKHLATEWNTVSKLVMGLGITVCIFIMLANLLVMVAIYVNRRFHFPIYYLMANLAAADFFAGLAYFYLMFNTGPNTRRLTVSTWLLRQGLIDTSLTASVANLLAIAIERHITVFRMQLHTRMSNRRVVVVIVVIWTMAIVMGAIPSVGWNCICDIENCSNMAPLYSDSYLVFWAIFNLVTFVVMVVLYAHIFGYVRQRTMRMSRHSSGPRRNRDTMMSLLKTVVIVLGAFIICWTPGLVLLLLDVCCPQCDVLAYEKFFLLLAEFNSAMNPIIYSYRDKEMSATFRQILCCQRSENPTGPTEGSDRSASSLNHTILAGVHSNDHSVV

| SMILES | pEC50 (Human LPA1 [1]) | pIC50 (Human LPA1 [3]) | pEC50 [2] |
| --- | --- | --- | --- |
| C[C@@H](OC(=O)Nc1c(-c2ccc(-c3cc4sc(C5(C(=O)O)CC5)cc4s3)cc2)nnn1C)c1ccccc1 [IT050] | > 7.30 | 6.30 to 7.30 | 6.30 to 7.30 |
| CCOC(=O)N1CCn2c(nc(-c3ccc(-c4ccc(C5(C(=O)O)CC5)cc4)cc3)c2NC(=O)O[C@H](C)c2ccccc2)C1 [IT023] | < 6.30 | < 6.30 | < 6.30 |
| C[C@@H](OC(=O)Nc1c(C#Cc2ccc3cc(C4(C(=O)O)CC4)ccc3c2)sc2ncccc12)c1ccccc1 [IT035] | > 7.30 | < 6.30 | 6.30 to 7.30 |
| Cc1noc(C#Cc2cc3sc(C4(C(=O)O)CC4)cc3s2)c1NC(=O)O[C@H](C)c1ccccc1Cl [IT047] | > 7.30 | 6.30 to 7.30 | > 7.30 |
| C[C@@H](OC(=O)Nc1c(-c2ccc(-c3ccc(C4(C(=O)O)CC4)cc3)cc2)nc2cnccn12)c1ccccc1 [IT032] | > 7.30 | 6.30 to 7.30 | 6.30 to 7.30 |
| Cc1noc(-c2cc(F)c(-c3ccc(C4(C(=O)O)CCOCC4)cc3)cc2F)c1NC(=O)O[C@H](C)c1ccccc1 [IT030] | < 6.30 | < 6.30 | < 6.30 |
| C[C@@H](OC(=O)Nc1c(C2CCC(c3ccc(C4(C(=O)O)CC4)cc3)CC2)cnn1C)c1ccccc1 (stereo partly drawn) [IT066] | 6.30 to 7.30 | 6.30 to 7.30 | < 6.30 |
| Cc1nnn(-c2cc(F)c(-c3cc4sc(C5(C(=O)O)CC5)cc4s3)cc2F)c1NC(=O)O[C@H](C)c1ccccc1 [IT067] | 6.30 to 7.30 | 6.30 to 7.30 | < 6.30 |
| C[C@@H](OC(=O)Nc1c(-c2ccc(-c3cc4sc(C5(C(=O)O)CC5)cc4s3)cc2)cnn1C)c1ccccc1 [IT056] | > 7.30 | 6.30 to 7.30 | 6.30 to 7.30 |
| Cc1noc(-c2ccc(-c3nc4ccc(C(=O)O)cc4s3)cc2)c1NC(=O)O[C@H](C)c1ccccc1 [IT010] | < 6.30 | < 6.30 | < 6.30 |
| Cc1noc(C#Cc2ccc3cc(C4(CC(=O)O)CC4)ccc3c2)c1NC(=O)O[C@H](C)c1ccccc1 [IT003] | > 7.30 | > 7.30 | 6.30 to 7.30 |
| C[C@@H](OC(=O)Nc1c(-c2ccc(-c3ccc(C4(C(=O)O)CC4)cc3)cc2)sc2ncccc12)c1ccccc1 [IT031] | > 7.30 | 6.30 to 7.30 | 6.30 to 7.30 |
| Cc1nsc(-c2ccc(C34CCC(CC(=O)O)(CC3)CC4)cc2)c1NC(=O)O[C@H](C)c1ccccc1 [IT026] | < 6.30 | < 6.30 | < 6.30 |
| C[C@@H](OC(=O)N(C)c1c(C#Cc2cc3sc(C4(C(=O)O)CC4)cc3s2)cnn1C)c1ccccc1 [IT097] | 6.30 to 7.30 | – | < 6.30 |
| COc1ccccc1OC(=O)C1(c2cc3sc(C#Cc4cnn(C)c4NC(=O)O[C@H](C)c4ccccc4)cc3s2)CC1 [IT088] | > 7.30 | – | 6.30 to 7.30 |
| CCN1CCn2c(nc(-c3ccc(-c4ccc(C5(C(=O)O)CC5)cc4)cc3)c2NC(=O)O[C@H](C)c2ccccc2)C1 [IT024] | < 6.30 | – | < 6.30 |
| Cc1nsc(-c2ccc3cc(C4CCC(C(=O)O)CC4)ccc3c2)c1NC(=O)O[C@H](C)c1ccccc1 (stereo partly drawn) [IT054] | < 6.30 | – | < 6.30 |
| C[C@@H](OC(=O)Nc1c(-c2cc(F)c(-c3ccc(C4(C(=O)O)CCOCC4)cc3)cc2F)cnn1C)c1ccccc1 [IT044] | > 7.30 | – | 6.30 to 7.30 |
| Cc1noc(-c2ccc(-c3ccc4c(c3)CCOC4C(=O)O)cc2)c1NC(=O)O[C@H](C)c1ccccc1 (stereo partly drawn) [IT012] | < 6.30 | – | < 6.30 |

Further lines, with some results ahead:

| pEC50 (Human LPA1 [1]) | pIC50 (Human LPA1 [3]) | SMILES | pEC50 [2] |
| --- | --- | --- | --- |
| > 7.30 | > 7.30 | Cc1noc(C#Cc2cc3sc(C4(C(=O)O)CC4)cc3s2)c1NC(=O)OCc1ccccc1 [IT048] | 6.30 to 7.30 |
| 6.30 to 7.30 | 6.30 to 7.30 | C[C@@H](OC(=O)Nc1c(-c2ccc(-c3ccc(C4(C(=O)O)CCOCC4)cc3)cc2)ncn1C)c1ccccc1 [IT027] | < 6.30 |
| < 6.30 | 6.30 to 7.30 | C[C@@H](OC(=O)Nc1c(-c2ccc(-c3ccc(C4(C(=O)O)CC4)cc3)cc2)nc2cccnn12)c1ccccc1 [IT041] | < 6.30 |
| > 7.30 | > 7.30 | C[C@@H](OC(=O)Nc1c(C#Cc2ccc3cc(C4(C(=O)O)CC4)ccc3c2)nnn1C)c1ccccc1 [IT064] | 6.30 to 7.30 |
| < 6.30 | < 6.30 | CC(=O)N1CCn2c(nc(-c3ccc(-c4ccc(C5(C(=O)O)CC5)cc4)cc3)c2NC(=O)O[C@H](C)c2ccccc2)C1 [IT020] | < 6.30 |
| > 7.30 | > 7.30 | CCn1ncc(C#Cc2ccc3cc(C4(C(=O)O)CC4)ccc3c2)c1NC(=O)O[C@H](C)c1ccccc1 [IT016] | 6.30 to 7.30 |
| > 7.30 | 6.30 to 7.30 | Cc1noc(-c2cc(F)c(-c3ccc(C4(C(=O)O)CCOCC4)cc3)cc2F)c1NC(=O)O[C@H](C)c1ccccc1 [IT029] | 6.30 to 7.30 |
| < 6.30 | < 6.30 | C[C@@H](OC(=O)Nc1c(-c2ccc(C#CC3(C(=O)O)CC3)cc2)cnn1C)c1ccccc1 [IT018] | < 6.30 |
| < 6.30 | < 6.30 | Cc1nsc(-c2ccc3cc(-c4ccc(C(=O)O)cc4)ccc3c2)c1NC(=O)O[C@H](C)c1ccccc1 [IT040] | < 6.30 |
| < 6.30 | – | C[C@@H](OC(=O)Nc1c(C#Cc2cc3sc(C4(CO)CC4)cc3s2)cnn1C)c1ccccc1 [IT083] | < 6.30 |
| < 6.30 | – | C[C@@H](OC(=O)Nc1c(C#CC2=CCC(C3(C(=O)O)CC3)CC2)cnn1C)c1ccccc1 (stereo partly drawn) [IT092] | < 6.30 |
| 6.30 to 7.30 | – | Cc1noc(-c2ccc(-c3ccc4c(c3)NC(=O)CC4C(=O)O)cc2)c1NC(=O)O[C@H](C)c1ccccc1 (stereo partly drawn) [IT011] | < 6.30 |
| > 7.30 | – | C[C@@H](OC(=O)Nc1c(C#Cc2cc3sc(C4(C(=O)OCOC(=O)C(C)(C)C)CC4)cc3s2)cnn1C)c1ccccc1 [IT087] | > 7.30 |
| < 6.30 | – | Cc1nsc(-c2ccc(C34CCC(C5(C(=O)O)CC5)(CC3)CC4)cc2)c1NC(=O)O[C@H](C)c1ccccc1 [IT093] | < 6.30 |
| < 6.30 | – | Cc1noc(C#Cc2ccc(NC(=O)C3(C(=O)O)CC3)cc2)c1NC(=O)O[C@H](C)c1ccccc1 [IT005] | < 6.30 |
| > 7.30 | – | Cc1nsc(-c2ccc(-c3ccc(C4(C(=O)O)CC4)cc3)cc2)c1NC(=O)OC(c1ccccc1)C(F)(F)F (single isomer, unassigned) [IT078] | 6.30 to 7.30 |
| < 6.30 | – | Cc1nsc(-c2ccc([C@H]3CC[C@@H](C(=O)O)CC3)cc2)c1NC(=O)O[C@H](C)c1ccccc1 [IT007] | < 6.30 |
| > 7.30 | – | C[C@@H](OC(=O)Nc1c(C#Cc2cc3sc(C4(C(=O)NS(C)(=O)=O)CC4)cc3s2)cnn1C)c1ccccc1 [IT098] | > 7.30 |
| > 7.30 | – | COCCOC(=O)C1(c2cc3sc(C#Cc4cnn(C)c4NC(=O)O[C@H](C)c4ccccc4)cc3s2)CC1 [IT084] | 6.30 to 7.30 |
| < 6.30 | – | Cc1noc(-c2ccc(-c3ccc(C4(C(=O)O)CC4)cc3)cc2)c1NC(=O)O[C@H]1CCCc2ccccc21 (single isomer, unassigned) [IT058] | < 6.30 |
| 6.30 to 7.30 | – | CC(C)OC(=O)C1(c2cc3sc(C#Cc4cnn(C)c4NC(=O)O[C@H](C)c4ccccc4)cc3s2)CC1 [IT086] | < 6.30 |
